From EP0342433A2, “Substituted dibenzothiaphenes” (AMERICAN CYANAMID COMPANY, priority 1988, dated 1989)

What was measured:
IL-1 = IL-1 assay: supernatants of peritoneal exudate cells of orally treated mice, tested on thymocytes; format: in vivo, C57BI/6 mice; details: oral dose 25, 100 or 200 mg/Kg (not stated which), PEC collected four days later, 3H-TdR in thymocytes; for IL-1 ASSAY + LPS: with Lipopolysaccharide (10 μg/ml); for IL-1 ASSAY - LPS: without Lipopolysaccharide
Procedure: Groups of C57BI/6 mice were treated orally with immunomodulator at doses of 25, 100 or 200 mg/Kg. Four days later peritoneal exudate cells (PEC) were collected and 1 x 10^5 cells were plated in RPMI-1640 medium containing 5% fetal calf serum (FCS). After 2 hours incubation at 37°C the non-adherent cells were washed off and the adherent cells were incubated for 24 hours in RPMI medium with 5% FCS with or without Lipopolysaccharide (10 u.g/ml). The following day the supernatants were collected and assayed for IL-1 on thymocytes. The cultures were incubated for 3 days and then pulsed with ^3H-TdR using 0.5 µCi/well. The cells were harvested and the number of counts per minute (CPM) was determined using a Beckman scintillation counter.

SRBC = assay: Anti-SRBC antibody assay (antibody forming cells, plaques); format: in vivo, mice; details: oral, day 0, 200 or 600 mg/kg, SRBC IP day +4; for Production of Anti-SRBC Antibody, CPM Test No. 1: control 1,260; for Production of Anti-SRBC Antibody, CPM Test No. 2: control 830
Procedure: Compounds were given orally on day 0 at doses of 200 or 600 mg/kg. 0.1 ml of a 10% suspension of sheep RBC (Red Blood Cell) was given IP on day +4. Ten days later splenocytes were obtained from these mice and either 4 x 10^6 ot 2 x 10^6 splenocytes in 50 µl were mixed with 50 µl of a 15% suspension of SRBC containing guinea pig complement (1:4 dilution). 100 ul of this mixture was placed onto a slide culture and incubated for 30 to 45 minutes at 37°C. The number of antibody forming cells was determined by counting the number of visible plaques formed.

[1] = system: colony stimulating factor (CSF); assay: Colony stimulating factor production: mouse sera tested on normal bone marrow cells; format: in vivo, mice; details: 10% test serum on normal marrow cells, 3 days, 3HTdR; for Production of Colony Stimulating Factor, CPM Test No. 2: control 3,118; for Production of Colony Stimulating Factor, CPM Test No. 1: control 548
Procedure: Mouse femurs were removed and the marrow cells collected by aspiration through a 23 gauge needle and dispensed into 5 ml of RPMI 1640 culture medium. Aliquots were diluted with a 2% solution of acetic acid containing 0.2% crystal violet and the number of nucleated cells per femur was determined by direct count in a hemocytometer.
Mouse sera were assayed for colony stimulating factor (CSF) in cultures of normal bone marrow cells. CSF was tested in a system in which 5 x 10" normal marrow cells were incubated with 10% test samples in each well of 96-well culture plates for 3 days. Proliferation of these cells was determined by ^3HTdR incorporation.

IL-2 = IL-2 assay: supernatants of Con A stimulated lymphocytes of treated mice, proliferation of indicator cells; format: in vivo; details: mice treated with 100 mg/kg, Con A for 2 days; for IL-2 ASSAY CPM, % Supernatants Tested 5: 5 % supernatant; for IL-2 ASSAY CPM, % Supernatants Tested 10: 10 % supernatant; for IL-2 ASSAY CPM, % Supernatants Tested 20: 20 % supernatant
Procedure: Spleens were removed from mice and single-cell suspensions were prepared by teasing the spleens apart and rinsing through No. 40 and No. 80 stainless steel mesh screens. Erythrocytes were lysed by a 3- minute exposure to a 0.83% Tris-ammonium chloride solution. Cells were washed 3 times with HBSS and finally suspended in complete RPMI 1640 culture medium consisting of 5% FCS, 2mM L-glutamine, 5 x 10^-5M 2-mercaptoethanol, 10mM HEPES, 100 U/ml of penicillin, and 100 µg/ml of streptomycin. Cells were counted in a hemocytometer and the viability of test cells was always greater than 98% as judged by trypan blue dye exclusion.
IL-2 was made by stimulating 10^7 B6 splenocytes with 1 µg Con A in 1 ml medium. Supernatants were harvested 2 days later and residual Con A was removed by Sephadex G-50 absorption or a-methyl mannoside inactivation. IL-2 activity was tested in the thymocyte proliferation assay described above. Additionally, test samples were added to cultures of lymphoblasts prepared by a three-day Con A stimulation or to IL-2 dependent CT11-2 cells. The proliferation of these indicator cells was measured 24 hours later by ^3HTdR incorporation.
Lymphocytes prepared from normal mice or mice treated with 100 mg/kg of test compound were stimulated with Con A for 2 days. Culture supernatants were harvested and tested for putative IL-2 activity in 3 proliferation assays using thymocytes, lymphoblasts and CTLL-2 cells as indicators. Although supernatants from normal lymphocytes supported the growth of all indicator cells, lymphocytes from treated animals apparently produced more IL-2 as indicated by a greater degree of cell proliferation in all three test systems.

P815 tumor cells = assay: Macrophage mediated tumor cytostasis (activation of tumoricidal macrophages in compound-treated mice); format: in vivo; details: macrophages from compound-treated mice vs normal control macrophages; 3HTdR incorporation into P815 cells; single oral dose, day 4
Excerpt: The test compounds apparently were able to activate these cells in vivo to inhibit the growth of tumor cells in cultures. These "activated" macrophages were detectable in peritoneal exudates of treated mice on day 4 after receiving a single oral dose of the test compound. (Table I). […] (Tables II and III). […] (Table V). Mice treated with the test compounds also respond better to foreign antigens such as sheep red blood cells (SRBC) as shown by their ability to produce higher levels of antibody to this foreign protein. (Table IV). […]
P815 tumor cells obtained from D2 mice were washed twice with HBSS and suspended in 10% FCS- complete medium. Five x 10^3 P815 cells were added to culture wells containing B6 macrophages and the E:T ratios were determined by the numbers of PE cells added initially to each well. […] The amount of ^3HTdR incorporated into target cells was determined in a liquid scintillation counter. The mean cpm were obtained from triplicate cultures with results being presented as percent cytostasis calculated by the fol lowing formula: % cytostasis = (A-B)/A x 100 where A = cpm of cultures containing normal control macrophages; and B = cpm of cultures containing experimental macrophages obtained from compound-treated mice.

SMILES	IL-1 ASSAY + LPS (IL-1)	IL-1 ASSAY - LPS (IL-1)	Production of Anti-SRBC Antibody, CPM Test No. 1 (SRBC)	Production of Colony Stimulating Factor, CPM Test No. 2 [1]	IL-2 ASSAY CPM, % Supernatants Tested 5 (IL-2)	IL-2 ASSAY CPM, % Supernatants Tested 10 (IL-2)	IL-2 ASSAY CPM, % Supernatants Tested 20 (IL-2)	% Cytostasis (P815 tumor cells) [%]	Production of Anti-SRBC Antibody, CPM Test No. 2 (SRBC)	Production of Colony Stimulating Factor, CPM Test No. 1 [1]
CCC(=Nc1ccc2c(c1)-c1cc(N=C(CC)N(C)C)ccc1S2(=O)=O)N(C)C [N,N'"-2,8-Dibenzothiophenediyibis[N,N-dimethyipropanimidamide] S,S-dioxide]	44,983 CPM	52,160 CPM	1,029 CPM	6,513 CPM	2,766 CPM	6,457 CPM	11,288 CPM			
CCC(=Nc1ccc2c(c1)S(=O)(=O)c1cc(F)ccc1-2)N(C)C [N'-(7-Fluoro-3-dibenzothienyl)N,N-dimethylpropanimidamide S,S-dioxide]								77.4	1,474 CPM	1,353 CPM
CCC(=Nc1ccc2c(c1)S(=O)(=O)c1cc(N=C(CC)N(C)C)ccc1-2)N(C)C [N , N"-3,7-Dibenzothiophenediylbis[N,N-dimethylpropanimidamide] S,S-dioxide]	56,015 CPM	31,260 CPM	1,437 CPM	6,650 CPM	3,238 CPM	9,050 CPM	14,568 CPM			
CC(=O)Nc1ccc2c(c1)S(=O)(=O)c1cc(F)ccc1-2 [N-(7-Fluoro-3-dibenzothienyl)acetamide S,S-dioxide]	36,320 CPM	50,677 CPM			2,849 CPM	5,653 CPM	10,982 CPM	13.9	1,469 CPM	976 CPM
